Each block holds one molecule with its values, some of them ahead of it.
How the values were obtained:
Format in all cases: cell-based
[1] = test system: PPC-1 human prostate cancer cells; assay: SRB cytotoxicity assay, PPC-1; conditions: 96 h exposure, prostate cancer cell line
Procedure: (§1) Dr. Mitchell Steiner at University of Tennessee Health Science Center, kindly provided PPC-1 and TSU-Pr1 cells.
(§2) For in vitro cytotoxicity screening, 1000 to 5000 cells were plated into each well of 96-well plates depending on growth rate, and exposed to different concentrations of a test compound for 96 h in three to five replicates. All the compounds were dissolved in dimethyl sulfoxide at 5 to 20 mM, and diluted to desired concentrations in complete culture medium. Cell numbers at the end of the drug treatment were measured by the SRB assay (Gududuru et al., “Synthesis and Biological Evaluation of Novel Cytotoxic Phospholipids for Prostate Cancer,” Bioorg. Med. Chem. Lett. 14:4919-4923 (2004); Rubinstein et al., “Comparison of in vitro Anticancer-Drug-Screening Data Generated with a Tetrazolium Assay Versus a Protein Assay Against a Diverse Panel of Human Tumor Cell Lines,” J. Natl. Cancer Inst. 82:1113-1118 (1990), each of which is hereby incorporated by reference in its entirety). Briefly, the cells were fixed with 10% of trichloroacetic acid, stained with 0.4% SRB, and the absorbances at 540 nm was measured using a plate reader (DYNEX Technologies, Chantilly, Va.). […] A sandwich ELISA (Roche, Mannheim, Germany) utilizing monoclonal antibodies specific for DNA and histones was used to quantify degree of apoptosis induced by the analogs after 72 h exposure. This assay measures DNA-histone complexes (mono- and oligonucleosomes) released into cytoplasm from the nucleus during apoptosis.

[2] = test system: PC-3 human prostate cancer cells; assay: SRB cytotoxicity assay, PC-3; conditions: 96 h exposure, prostate cancer cell line
Procedure: as §2

[3] = test system: DU-145 human prostate cancer cells; assay: SRB cytotoxicity assay, DU-145; conditions: read-out: IC50 DU-145, 96 h exposure, prostate cancer cell line
Procedure: as §2

[4] = test system: human breast cancer cell line (MCF-7); assay: SRB cytotoxicity assay, MCF-7; conditions: SRB assay
Procedure: as §2
In vitro cytotoxicity assay was performed by the same sulforhodamine B (SRB) assay (described above). The compounds shown in Table 8 below where tested for activity against the breast cancer and ovarian cancer cell lines.
RH7777 and CV-1 cells were used as negative controls and MCF-7 cell line (breast cancer) was included to examine the selectivity.

[5] = test system: LNCaP human prostate cancer cells; assay: SRB cytotoxicity assay, LNCaP; conditions: 96 h exposure, prostate cancer cell line
Procedure: as §2

CV-1 cells = assay: SRB cytotoxicity assay, CV-1 control cell line
Procedure: For in vitro cytotoxicity screening, 1000 to 5000 cells were plated into each well of 96-well plates depending on growth rate, and exposed to different concentrations of a test compound for 96 h in three to five replicates. All the compounds were dissolved in dimethyl sulfoxide at 5 to 20 mM, and diluted to desired concentrations in complete culture medium. Cell numbers at the end of the drug treatment were measured by the SRB assay (Gududuru et al., “Synthesis and Biological Evaluation of Novel Cytotoxic Phospholipids for Prostate Cancer,” Bioorg. Med. Chem. Lett. 14:4919-4923 (2004); Rubinstein et al., “Comparison of in vitro Anticancer-Drug-Screening Data Generated with a Tetrazolium Assay Versus a Protein Assay Against a Diverse Panel of Human Tumor Cell Lines,” J. Natl. Cancer Inst. 82:1113-1118 (1990), each of which is hereby incorporated by reference in its entirety). Briefly, the cells were fixed with 10% of trichloroacetic acid, stained with 0.4% SRB, and the absorbances at 540 nm was measured using a plate reader (DYNEX Technologies, Chantilly, Va.). […] A sandwich ELISA (Roche, Mannheim, Germany) utilizing monoclonal antibodies specific for DNA and histones was used to quantify degree of apoptosis induced by the analogs after 72 h exposure. This assay measures DNA-histone complexes (mono- and oligonucleosomes) released into cytoplasm from the nucleus during apoptosis. RH7777 cells were employed because of nonspecific cytotoxicity of compound 4 in receptor-negative cells as well as receptor-positive prostate cancer cells.
RH7777 and CV-1 cells were used as negative controls and MCF-7 cell line (breast cancer) was included to examine the selectivity. 5-Fluorouracil was used as reference drug.

[6] = test system: five human prostate cancer cell lines (DU-145, PC-3, LNCaP, PPC-1, and TSU-Pr1); assay: SRB assay, statements on the panel of prostate cancer cell lines
Procedure: Cell numbers at the end of the drug treatment were measured by the SRB assay (Gududuru et al., “Synthesis and Biological Evaluation of Novel Cytotoxic Phospholipids for Prostate Cancer,” Bioorg. Med. Chem. Lett. 14:4919-4923 (2004); Rubinstein et al., “Comparison of in vitro Anticancer-Drug-Screening Data Generated with a Tetrazolium Assay Versus a Protein Assay Against a Diverse Panel of Human Tumor Cell Lines,” J. Natl. Cancer Inst. 82:1113-1118 (1990), each of which is hereby incorporated by reference in its entirety). Briefly, the cells were fixed with 10% of trichloroacetic acid, stained with 0.4% SRB, and the absorbances at 540 nm was measured using a plate reader (DYNEX Technologies, Chantilly, Va.). […] A sandwich ELISA (Roche, Mannheim, Germany) utilizing monoclonal antibodies specific for DNA and histones was used to quantify degree of apoptosis induced by the analogs after 72 h exposure. This assay measures DNA-histone complexes (mono- and oligonucleosomes) released into cytoplasm from the nucleus during apoptosis. […] EDG-ology of Liver Injury,” Biochimica et Biophysica ACT 1582:251-256 (2002), which is hereby incorporated by reference in its entirety) was also utilized to understand whether the antiproliferative activity of these derivatives is mediated through inhibition of LPL receptors.

[7] = test system: RH7777 rat hepatoma cells; assay: SRB cytotoxicity assay, RH7777 control cell line; conditions: SRB assay, 96 h exposure; control cell line
Procedure: as §2

[8] = test system: TSU-Pr1 human prostate cancer cells; assay: SRB cytotoxicity assay, TSU-Pr1; conditions: 96 h exposure, prostate cancer cell line
Procedure: as §1, §2

SKMEL-188 melanoma cells = assay: Sulforhodamine B assay in melanoma cells, SKMEL-188; conditions: SK-MEL-188, 48 h, SRB assay, 48 h incubation; melanoma cell line
Procedure: (§3) SKMEL-188 cells were cultured in Ham's F10 medium (Gibco Invitrogen, Inc., Grand Island, N.Y.) plus 5% fetal bovine serum (Cellgro Mediatech, Inc., Herndon, Va.) and 1% antibiotic/antimycotic mixture (Sigma-Aldrich, Inc., St. Louis, Mo.). WM-164 cells (gift of Dr. Meenhard Herlyn, Wistar Inst., Philadelphia, Pa.) and human dermal fibroblasts (Cascade Biologics, Inc., Portland, Oreg.) were cultured in DMEM medium (Cellgro Mediatech, Inc.) supplemented with 5% fetal bovine serum, 1% antibiotic.antimycotic mixture and bovine insulin ([…], Sigma-Aldrich, Inc.). Human dermal fibroblasts were used as a control to examine the effects of compounds on stromal environment. Thus, the effect of the various compounds on melanoma cells versus fibroblasts would document their potential selectivity.
(§4) Sulforhodamine B Assay: Cells were seeded into 96-well plates at 5000 cells/well. After 12 hours, media were changed and serial dilutions of compounds were added. Cells were incubated with each compound for 48 hours. Fresh media containing the test compound were changed ever 24 hours. Thereafter, total cell protein corresponding to cell numbers (both viable and non-viable cells) were measured using the sulforhodamine B (SRB) assay according to manufacturer's protocol (Sigma-Aldrich, Inc.) (Rubinstein et al., “Comparison of in vitro Anticancer Drug-screening Data Generated with a Tetrazolium Assay Versus a Protein Assay Against a Diverse Panel of Human Tumor Cell Lines,” J. Natl. Cancer Inst. 82:1113-1118 (1990); Dothager et al., “Synthesis and Identification of Small Molecules that Potently Induce Apoptosis in Melanoma Cells Through GI Cell Cycle Arrest,” J. Am. Chem. Soc. 127:8686-8696 (2005), each of which is hereby incorporated by reference in its entirety). Briefly, cells were fixed with trichloracetic acid, washed and incubated with sulforhodamine B for 30 minutes. After another wash, dye incorporated into the cells was solubilized and measured using a plate reader at 565 nm.
(§5) Statistical Analysis: Data is presented as mean±SEM (n=6-8). […] Statistical analyses were performed with Student's t-test (*p<0.05; **p<0.005).
(§6) DTIC and Taxol were assayed in the same way for comparison and served as internal quality controls in the different batches of assay. For comparison, the activities of 5R and 5S were measured.

WM-164 cells = assay: Sulforhodamine B assay in melanoma cells, WM-164; conditions: Homo sapiens, WM164, read-out: IC50 WM-164; SRB assay, 48 h incubation; melanoma cell line
Procedure: as §3, §4, §5, §6

[9] = test system: SKMEL-188 and WM-164 cell lines; assay: SRB assay, statements on both melanoma cell lines
Procedure: Louis, Mo.). WM-164 cells (gift of Dr. Meenhard Herlyn, Wistar Inst., Philadelphia, Pa.) and human dermal fibroblasts (Cascade Biologics, Inc., Portland, Oreg.) were cultured in DMEM medium (Cellgro Mediatech, Inc.) supplemented with 5% fetal bovine serum, 1% antibiotic.antimycotic mixture and bovine insulin ([…], Sigma-Aldrich, Inc.). Human dermal fibroblasts were used as a control to examine the effects of compounds on stromal environment. Thus, the effect of the various compounds on melanoma cells versus fibroblasts would document their potential selectivity. Sulforhodamine B Assay: Cells were seeded into 96-well plates at 5000 cells/well. After 12 hours, media were changed and serial dilutions of compounds were added. Cells were incubated with each compound for 48 hours. Fresh media containing the test compound were changed ever 24 hours. Thereafter, total cell protein corresponding to cell numbers (both viable and non-viable cells) were measured using the sulforhodamine B (SRB) assay according to manufacturer's protocol (Sigma-Aldrich, Inc.) (Rubinstein et al., “Comparison of in vitro Anticancer Drug-screening Data Generated with a Tetrazolium Assay Versus a Protein Assay Against a Diverse Panel of Human Tumor Cell Lines,” J. Natl. Cancer Inst. 82:1113-1118 (1990); Dothager et al., “Synthesis and Identification of Small Molecules that Potently Induce Apoptosis in Melanoma Cells Through GI Cell Cycle Arrest,” J. Am. Chem. Soc. 127:8686-8696 (2005), each of which is hereby incorporated by reference in its entirety). Briefly, cells were fixed with trichloracetic acid, washed and incubated with sulforhodamine B for 30 minutes. After another wash, dye incorporated into the cells was solubilized and measured using a plate reader at 565 nm. Statistical Analysis: Data is presented as mean±SEM (n=6-8). […] Statistical analyses were performed with Student's t-test (*p<0.05; **p<0.005). […] DTIC and Taxol were assayed in the same way for comparison and served as internal quality controls in the different batches of assay. For comparison, the activities of 5R and 5S were measured.

human dermal fibroblasts = assay: Sulforhodamine B assay, fibroblast control cells; conditions: Homo sapiens, Fibroblast, 48 h, SRB assay, 48 h incubation
Procedure: as §3, §4, §5, §6

IC50 [6]: > 100 µM
SMILES: COc1cc(C2NC(C(=O)NCCCCN)CS2)cc(OC)c1OC (mixture of isomers) [Compound 222]
IC50 [1]: > 100 µM
IC50 [2]: > 100 µM
IC50 [3]: > 100 µM
IC50 [4]: > 100 µM
IC50 [5]: > 100 µM
IC50 (CV-1 cells): > 100 µM
IC50 [7]: > 100 µM
IC50 [8]: > 100 µM

IC50 [6]: > 100 µM
SMILES: COc1cc(C2NC(C(=O)NCCCNCCCCN)CS2)cc(OC)c1OC (mixture of isomers) [Compound 223]
IC50 [1]: > 100 µM
IC50 [2]: > 100 µM
IC50 [3]: > 100 µM
IC50 [4]: > 100 µM
IC50 [5]: > 100 µM
IC50 (CV-1 cells): > 100 µM
IC50 [7]: > 100 µM
IC50 [8]: > 100 µM

IC50 [6]: > 100 µM
SMILES: NCCCCNC(=O)C(N)CO (stereo not shown) [Compound 214]
IC50 [1]: > 100 µM
IC50 [2]: > 100 µM
IC50 [3]: > 100 µM
IC50 [4]: > 100 µM
IC50 [5]: > 100 µM
IC50 (CV-1 cells): > 100 µM
IC50 [7]: > 100 µM
IC50 [8]: > 100 µM

IC50 [6]: > 100 µM
SMILES: NCCCCNCCCNC(=O)C(N)CO (stereo not shown) [Compound 215]
IC50 [1]: > 100 µM
IC50 [2]: > 100 µM
IC50 [3]: > 100 µM
IC50 [4]: > 100 µM
IC50 [5]: > 100 µM
IC50 (CV-1 cells): > 100 µM
IC50 [7]: > 100 µM
IC50 [8]: > 100 µM

IC50 [6]: > 100 µM
SMILES: NCCCCNC(=O)CN1C(=O)CSC1c1ccccc1 (stereo not shown) [Compound 218]
IC50 [1]: > 100 µM
IC50 [2]: > 100 µM
IC50 [3]: > 100 µM
IC50 [4]: > 100 µM
IC50 [5]: > 100 µM
IC50 (CV-1 cells): > 100 µM
IC50 [7]: > 100 µM
IC50 [8]: > 100 µM

IC50 [6]: > 100 µM
SMILES: NCCCCNCCCNC(=O)CN1C(=O)CSC1c1ccccc1 (stereo not shown) [Compound 219]
IC50 [1]: > 100 µM
IC50 [2]: > 100 µM
IC50 [3]: > 100 µM
IC50 [4]: > 100 µM
IC50 [5]: > 100 µM
IC50 (CV-1 cells): > 100 µM
IC50 [7]: > 100 µM
IC50 [8]: > 100 µM

IC50 (SKMEL-188 melanoma cells): > 100 µM
IC50 (WM-164 cells): > 100 µM
IC50 ([9]; 48 h, read-out: IC50 against both melanoma cell lines): > 100 µM
SMILES: CN(C)/N=N/c1[nH]cnc1C(N)=O [DTIC, dacarbazine, reference compound]

IC50 (SKMEL-188 melanoma cells): 3.8 µM
IC50 (WM-164 cells): 6.1 µM
SMILES: CC(=O)O[C@H]1C(=O)[C@@]2(C)[C@H]([C@H](OC(=O)c3ccccc3)[C@]3(O)C[C@H](OC(=O)[C@H](O)[C@@H](NC(=O)c4ccccc4)c4ccccc4)C(C)=C1C3(C)C)[C@]1(OC(C)=O)CO[C@@H]1C[C@@H]2O [Taxol, reference compound]
IC50 (human dermal fibroblasts): > 10 µM
Killing of melanoma cells (cytostatic versus cytotoxic) ([9]; higher concentrations): not effective in killing the cells
